Test results reported in ChEMBL document CHEMBL1201862, “PubChem BioAssay data set” (2004).
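All cell lines were grown in 96-well plates and treated with compound for 48 hours. GI50 = concentration required for 50% inhibition of growth.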 Activity calls are given as the source filed them. Cut-off read from the data, not from the text of the source: active = GI50 up to about 1.1 µM and inactive = higher.

What was measured:
Test in all cases: NCI-60 cell line screen, 48 h
786-0 = tested on: 786-0
A498 = tested on: A498
HCT-116 = tested on: HCT-116
HL-60 = tested on: HL-60
HOP-62 = tested on: HOP-62
K562 = tested on: K562
KM12 = tested on: KM12
M14 = tested on: M14
MDA-MB-435 = tested on: MDA-MB-435
MDA-N = tested on: MDA-N
MOLT-4 = tested on: MOLT-4
NCI-H23 = tested on: NCI-H23
PC-3 = tested on: PC-3
RPMI-8226 = tested on: RPMI-8226
SK-MEL-2 = tested on: SK-MEL-2
SK-MEL-5 = tested on: SK-MEL-5
UACC-257 = tested on: UACC-257
UACC-62 = tested on: UACC-62
BT-549 = tested on: BT-549

Row | Structure (SMILES) | GI50 (786-0) | GI50 (A498) | GI50 (HCT-116) | GI50 (HL-60) | GI50 (HOP-62) | GI50 (K562) | GI50 (KM12) | GI50 (M14) | GI50 (MDA-MB-435) | GI50 (MDA-N) | GI50 (MOLT-4) | GI50 (NCI-H23) | GI50 (PC-3) | GI50 (RPMI-8226) | GI50 (SK-MEL-2) | GI50 (SK-MEL-5) | GI50 (UACC-257) | GI50 (UACC-62) | GI50 (BT-549)
1 | CC(C)(C)[Si](C)(C)OCC1OC(n2ccc(=O)[nH]c2=O)C(O[Si](C)(C)C(C)(C)C)/C1=C/C#N (stereo not drawn) | 4.37 µM (inactive) | 10 µM (inactive) | 3.36 µM (inactive) | 2.86 µM (inactive) | 12.5 µM (inactive) | 1.76 µM (inactive) | 3.66 µM (inactive) | 10.9 µM (inactive) | 3.94 µM (inactive) | 4.76 µM (inactive) | 2.72 µM (inactive) | 5.89 µM (inactive) | 2.88 µM (inactive) | 3.71 µM (inactive) | 0.757 µM (active) | 3.07 µM (inactive) | 7.19 µM (inactive) | 1.07 µM (active) | –
2 | O=[N+]([O-])C[C@@]12O[C@]3(O)C4C5CC(C6C5C3C61)C42 (stereo partly drawn) | > 100 µM (inactive) | > 100 µM (inactive) | > 100 µM (inactive) | > 100 µM (inactive) | > 100 µM (inactive) | > 100 µM (inactive) | > 100 µM (inactive) | > 100 µM (inactive) | > 100 µM (inactive) | – | > 100 µM (inactive) | > 100 µM (inactive) | > 100 µM (inactive) | > 100 µM (inactive) | > 100 µM (inactive) | > 100 µM (inactive) | > 100 µM (inactive) | > 100 µM (inactive) | > 100 µM (inactive)
3 | COC1CC2CCC(C)[C@](O)(O2)C(=O)C(=O)N2CCCCC2C(=O)OC(C(C)CC2CCC(O)C(OC)C2)CC(=O)C(C)C=C(C)C(OC(=O)CN(C)C)C(OC)C(=O)C(C)CC(C)/C=C/C=C/C=C\1C (stereo partly drawn) | 10.8 µM (inactive) | < 0.01 µM (active) | 5.87 µM (inactive) | 2 µM (inactive) | < 0.01 µM (active) | < 0.01 µM (active) | 9.59 µM (inactive) | 7.43 µM (inactive) | 2.69 µM (inactive) | – | < 0.01 µM (active) | 10.9 µM (inactive) | < 0.01 µM (active) | < 0.01 µM (active) | < 0.0419 µM (active) | 3.78 µM (inactive) | 11.3 µM (inactive) | < 0.01 µM (active) | < 0.01 µM (active)
4 | COc1ccc(C(=O)c2nc3ccccc3nc2N2CCN(c3ccccc3)CC2)cc1OC | > 100 µM (inactive) | > 100 µM (inactive) | > 100 µM (inactive) | > 100 µM (inactive) | > 100 µM (inactive) | > 100 µM (inactive) | > 100 µM (inactive) | > 100 µM (inactive) | > 100 µM (inactive) | > 100 µM (inactive) | > 100 µM (inactive) | > 100 µM (inactive) | > 100 µM (inactive) | > 100 µM (inactive) | > 100 µM (inactive) | > 100 µM (inactive) | > 100 µM (inactive) | > 100 µM (inactive) | –
5 | C=CCN1C(=O)N/C(=C\c2ccc(Cl)cc2)C1=O | > 100 µM (inactive) | 22.6 µM (inactive) | > 100 µM (inactive) | > 100 µM (inactive) | > 100 µM (inactive) | > 100 µM (inactive) | > 100 µM (inactive) | > 100 µM (inactive) | > 100 µM (inactive) | > 100 µM (inactive) | > 100 µM (inactive) | > 100 µM (inactive) | – | > 100 µM (inactive) | – | > 100 µM (inactive) | > 100 µM (inactive) | 97.7 µM (inactive) | > 100 µM (inactive)
6 | N#Cc1nc(C2CCC2)oc1N | > 100 µM (inactive) | > 100 µM (inactive) | > 100 µM (inactive) | 84.9 µM (inactive) | > 100 µM (inactive) | > 100 µM (inactive) | > 100 µM (inactive) | > 100 µM (inactive) | > 100 µM (inactive) | > 100 µM (inactive) | > 100 µM (inactive) | > 100 µM (inactive) | > 100 µM (inactive) | > 100 µM (inactive) | > 100 µM (inactive) | > 100 µM (inactive) | > 100 µM (inactive) | > 100 µM (inactive) | –
7 | O=C(CSCC(=O)N/N=C\c1ccccc1F)N/N=C\c1ccccc1F | > 100 µM (inactive) | > 100 µM (inactive) | > 100 µM (inactive) | > 100 µM (inactive) | – | – | 92.9 µM (inactive) | > 100 µM (inactive) | 68.5 µM (inactive) | – | 63.2 µM (inactive) | > 100 µM (inactive) | – | 36.3 µM (inactive) | > 100 µM (inactive) | 64.1 µM (inactive) | > 100 µM (inactive) | > 100 µM (inactive) | –
8 | COC1CC(n2ccc(=O)[nH]c2=O)OC1CO (stereo not drawn) | > 100 µM (inactive) | > 100 µM (inactive) | > 100 µM (inactive) | – | > 100 µM (inactive) | > 100 µM (inactive) | > 100 µM (inactive) | > 100 µM (inactive) | > 100 µM (inactive) | > 100 µM (inactive) | > 100 µM (inactive) | > 100 µM (inactive) | > 100 µM (inactive) | – | > 100 µM (inactive) | > 100 µM (inactive) | > 100 µM (inactive) | > 100 µM (inactive) | –
9 | N#C/C(=C\n1ccc(=O)[nH]c1=S)C(N)=O | > 100 µM (inactive) | > 100 µM (inactive) | > 100 µM (inactive) | > 100 µM (inactive) | > 100 µM (inactive) | > 100 µM (inactive) | > 100 µM (inactive) | > 100 µM (inactive) | > 100 µM (inactive) | > 100 µM (inactive) | > 100 µM (inactive) | > 100 µM (inactive) | > 100 µM (inactive) | > 100 µM (inactive) | > 100 µM (inactive) | > 100 µM (inactive) | > 100 µM (inactive) | > 100 µM (inactive) | –
10 | CCOC(=O)c1c(OCC)[nH]c(=O)c(C(c2cccs2)c2c(O)c(C(=O)OCC)c(OCC)[nH]c2=O)c1O | 12.1 µM (inactive) | 2.67 µM (inactive) | 17.5 µM (inactive) | 13.7 µM (inactive) | 10.4 µM (inactive) | – | 17.9 µM (inactive) | 16.1 µM (inactive) | 14.5 µM (inactive) | – | 6.47 µM (inactive) | 21.4 µM (inactive) | 18.2 µM (inactive) | 12.1 µM (inactive) | 12.8 µM (inactive) | 12.9 µM (inactive) | 11.7 µM (inactive) | 14.2 µM (inactive) | 5 µM (inactive)
11 | c1ccc(CCN2CCN=C2Cc2ccccc2)cc1 | > 100 µM (inactive) | > 100 µM (inactive) | > 100 µM (inactive) | > 100 µM (inactive) | > 100 µM (inactive) | 29.2 µM (inactive) | > 100 µM (inactive) | 31.1 µM (inactive) | – | > 100 µM (inactive) | – | > 100 µM (inactive) | – | 29 µM (inactive) | > 100 µM (inactive) | > 100 µM (inactive) | > 100 µM (inactive) | > 100 µM (inactive) | > 100 µM (inactive)
12 | N=C(N)N/N=C/c1c(-c2ccccc2[N+](=O)[O-])nc2sccn12 | 19.5 µM (inactive) | 18.8 µM (inactive) | 18.6 µM (inactive) | 16.6 µM (inactive) | 25.7 µM (inactive) | 14.1 µM (inactive) | 20.4 µM (inactive) | 16.7 µM (inactive) | 17.1 µM (inactive) | – | 17.7 µM (inactive) | 29.2 µM (inactive) | 24.3 µM (inactive) | 19.5 µM (inactive) | 15.1 µM (inactive) | 16.9 µM (inactive) | 18.3 µM (inactive) | 17.5 µM (inactive) | 30.7 µM (inactive)
13 | N#C/C(=C\c1cccc(Br)c1)c1nc2ccccc2c(=O)[nH]1 | 49.4 µM (inactive) | – | > 100 µM (inactive) | > 100 µM (inactive) | 21.9 µM (inactive) | > 100 µM (inactive) | > 100 µM (inactive) | > 100 µM (inactive) | > 100 µM (inactive) | > 100 µM (inactive) | > 100 µM (inactive) | – | > 100 µM (inactive) | > 100 µM (inactive) | > 100 µM (inactive) | > 100 µM (inactive) | > 100 µM (inactive) | 76.2 µM (inactive) | –
14 | O=C(Cn1cc(-c2ccccc2)nn1)NC1CCCCC1 | > 100 µM (inactive) | – | > 100 µM (inactive) | > 100 µM (inactive) | > 100 µM (inactive) | > 100 µM (inactive) | > 100 µM (inactive) | > 100 µM (inactive) | > 100 µM (inactive) | – | > 100 µM (inactive) | > 100 µM (inactive) | > 100 µM (inactive) | > 100 µM (inactive) | > 100 µM (inactive) | > 100 µM (inactive) | > 100 µM (inactive) | – | > 100 µM (inactive)
15 | NC(=O)C(=CNC(=S)Nc1ccccc1)C(N)=O | > 100 µM (inactive) | > 100 µM (inactive) | > 100 µM (inactive) | > 100 µM (inactive) | > 100 µM (inactive) | > 100 µM (inactive) | > 100 µM (inactive) | > 100 µM (inactive) | > 100 µM (inactive) | > 100 µM (inactive) | > 100 µM (inactive) | > 100 µM (inactive) | > 100 µM (inactive) | > 100 µM (inactive) | > 100 µM (inactive) | > 100 µM (inactive) | > 100 µM (inactive) | > 100 µM (inactive) | –
16 | COc1cc(/C=C2\N=C(c3ccccc3)N(c3nc4c(Cl)cc(Cl)cc4s3)C2=O)ccc1O | 35.9 µM (inactive) | 17.8 µM (inactive) | 24 µM (inactive) | 16.3 µM (inactive) | 32 µM (inactive) | 24.8 µM (inactive) | 25.4 µM (inactive) | 40.5 µM (inactive) | 27.5 µM (inactive) | – | 0.059 µM (active) | – | 19.5 µM (inactive) | 8.53 µM (inactive) | 23.4 µM (inactive) | 24.5 µM (inactive) | 30.9 µM (inactive) | 25.8 µM (inactive) | 21.1 µM (inactive)
